# Source: paper PMC10002984, “Dual PTP1B/TC-PTP Inhibitors: Biological Evaluation of 3-(Hydroxymethyl)cinnoline-4(1H)-Ones” (International Journal of Molecular Sciences, 2023)
# Marks after values point to notes of the source that are not given here.
# Legend:
# PTP1B = tested on: PTP1B; set-up: method as in doi:10.1134/S0022093018040038; settings: cited from earlier work
# rat hypothalamic neurons = tested on: rat hypothalamic neurons; set-up: method as in doi:10.1134/S0022093018040038; settings: cited from earlier work
# diet-induced obese rats = tested on: diet-induced obese rats; set-up: method as in doi:10.1134/S0022093022060187; settings: cited from earlier work
# [1] = tested on: male rats with HFD-induced obesity; assay: Blood glucose, insulin and leptin levels and insulin resistance index in obese rats; type: in vivo, male Wistar rats
# Protocol: (§1) Further, six groups were formed: control (Con, n = 10), obesity (Ob, n = 10), obese rats with five-day treatment with compounds 1 (Ob + 1, n = 5), 2 (Ob + 2, n = 5), 3 (Ob + 3, n = 10), and 4 (Ob + 4, n = 10). All compounds were administered in DMSO (300 µL) at a daily dose of 7 mg/kg (1 and 2), 8 mg/kg (3), and 10 mg/kg (4) (i.p.), based on the results of the preliminary experiments. The used doses of compounds 1–4, in terms of the number of moles of each compound per kg of animal body weight, were equivalent. Control and obese rats received DMSO in the same volumes (300 µL), instead of the tested compounds. During the five days of the experiment, all animals were transferred to standard food and had free access to food and drinking water. […] The test was carried out on the morning of the next day after the last (fifth) injection of the compounds or DMSO, after a 10 h fast. The rest of the animals (n = 5 in each group) were anesthetized and decapitated on the last day of the experiment. The blood and liver samples were taken to measure blood glucose and hormone levels and gene expression in the liver.
# The glucose levels in the blood obtained from the tail vein were measured using a glucometer (Life Scan Johnson & Johnson, Denmark) and the test strips “One Touch Ultra” (USA). The levels of insulin and leptin in rat serum were estimated with the “Rat Insulin ELISA” (Mercodia AB, Uppsala, Sweden) and “ELISA for Leptin, Rat” (Cloud-Clone Corporation, Houston, TX, USA) kits. The GTT was carried out using a single injection of glucose (2 g/kg, i.p.) after 10 h of fasting, as described earlier. The blood glucose levels were measured before (0 min) and 15, 30, 60, and 120 min after the glucose load.
# [2] = molecular target: T1, human recombinant TC-PTP protein (Homo sapiens, UniProt P17706); assay: Phosphatase activity assay with DiFMUP, TC-PTP inhibition; type: biochemical; settings: DiFMUP 35 µM, 80 ng/mL TC-PTP, compounds 0.1–80 μM; M ± SEM (n = 24); read-out: IC50 for the inhibitory effect on TC-PTP activity
# T1 construct: purchased Sigma-Aldrich SRP0218
# T1 sequence (P17706 1-415): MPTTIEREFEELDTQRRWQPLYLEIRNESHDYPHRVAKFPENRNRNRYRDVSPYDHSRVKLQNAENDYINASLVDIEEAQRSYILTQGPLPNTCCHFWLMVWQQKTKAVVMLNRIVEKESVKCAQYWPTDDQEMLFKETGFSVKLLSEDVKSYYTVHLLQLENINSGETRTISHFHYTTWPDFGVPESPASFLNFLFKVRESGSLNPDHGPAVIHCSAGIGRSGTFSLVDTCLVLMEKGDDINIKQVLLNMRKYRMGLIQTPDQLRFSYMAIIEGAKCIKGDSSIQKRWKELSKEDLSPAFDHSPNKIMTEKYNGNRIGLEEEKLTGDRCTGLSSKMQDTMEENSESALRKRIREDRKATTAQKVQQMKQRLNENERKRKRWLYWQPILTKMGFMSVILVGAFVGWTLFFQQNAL
# Protocol: (§2) The measurement of the activity of the phosphatases PTP1B and TC-PTP and their inhibition was carried out using 6,8-difluoro-4methylumbelliferyl phosphate (DiFMUP), as previously described. The stock solution of recombinant human PTP1B protein (#ab51277, Abcam, Cambridge, UK), at a concentration of 1 µg/µL, was prepared in 25 mM Tris–HCl (pH 7.5), 20% glycerol, 2 mM β-mercaptoethanol, 1 mm EDTA, and 1 mM DTT, and stored at −20 °C. Active human recombinant TC-PTP protein was purchased from Sigma-Aldrich (#SRP0218, Saint Louis, MO, USA) as the aqueous buffer solution at a concentration of 2.9 mg/mL, and aliquots were stored at −80 °C. The fluorogenic substrate DiFMUP (#D6567, Molecular Probes, Thermo Fisher Scientific, Waltham, MA, USA) was dissolved at a concentration of 10 mM in N,N-dimethylformamide and stored in aliquots at −20 °C. The 6,8-difluoro-7-hydroxy-4-methylcoumarin (DiFMU, #D6566, Molecular Probes, Thermo Fisher Scientific, Waltham, MA, USA) was used as a reference fluorescent standard. For the IC50 determination, the assay was carried out in black flat bottom 96-well plates using a reaction volume of 100 µL. The phosphatases (PTP1B or TC-PTP) were preincubated with the tested compounds (0.1–80 µM) in 50 mM HEPES (pH 6.9), 100 mM NaCl, 1 mM EDTA, 2 mM DTT, 0.1 mg/mL BSA for 5 min at 37 °C. The following concentrations of the compounds were studied: 0.1, 0.2, 0.5, 1, 2, 5, 10, 20, 40, and 80 μM. The reactions were initiated by the addition of the fluorogenic substrate DiFMUP and diluted in the assay buffer. Progress curves for hydrolysis reaction were obtained with 25 µM of DiFMUP for 80 ng/mL PTP1B, and 35 µM of DiFMUP for 80 ng/mL TC-PTP. Fluorescence excitation of hydrolyzed DiFMUP and the fluorescent standard DiFMU was monitored at 355 nm and emission was detected at 460 nm for 6–10 min at 30 s intervals in a Fluoroskan Ascent FL microplate reader (Thermo Electron Corporation, Vantaa, Finland). Initial velocities of the reactions were used to calculate the IC50 values using GraphPad Prism.
# (§3) The data on food intake, body weight, and biochemical parameters in rats, as well as the PCR data, were analyzed using the IBM SPSS Statistics 22 software (“IBM”, Armonk, NY, USA), and the results are presented as mean ± standard error of the mean (M ± SEM). All differences are considered significant at p < 0.05. The calculation of the IC50 values of the studied inhibitors for the initial velocities of enzymatic reactions (PTP1B, TC-PTP) was carried out using the nonlinear regression analysis with GraphPad Prism 8 (“GraphPad Software, Inc.”, Boston, MA, USA). The statistical analysis was carried out using the Wilcoxon test for pairwise comparison and Dunn’s test for multiple comparisons.
# [3] = molecular target: T2, recombinant human PTP1B protein (Homo sapiens, UniProt P18031); assay: Phosphatase activity assay with DiFMUP, PTP1B inhibition; type: biochemical
# T2 construct: purchased Abcam ab51277
# T2 sequence (P18031 1-321 limits assumed): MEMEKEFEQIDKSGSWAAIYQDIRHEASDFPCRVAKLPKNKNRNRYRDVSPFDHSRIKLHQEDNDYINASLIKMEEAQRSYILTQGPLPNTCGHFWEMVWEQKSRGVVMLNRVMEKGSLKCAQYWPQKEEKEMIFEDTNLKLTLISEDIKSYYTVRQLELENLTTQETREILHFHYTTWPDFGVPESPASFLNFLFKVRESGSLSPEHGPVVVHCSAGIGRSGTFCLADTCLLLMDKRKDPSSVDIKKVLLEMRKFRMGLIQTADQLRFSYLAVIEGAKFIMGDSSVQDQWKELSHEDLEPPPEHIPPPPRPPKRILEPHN
# Protocol: as §2, §3
# Shp1 gene = assay: Gene expression in the liver of obese rats (qPCR), Shp1 gene; type: in vivo, rat; settings: five-day treatment
# Protocol: as §1
# The total RNA was isolated from the liver samples of rats using the “ExtractRNA Reagent” (Evrogen, Moscow, Russia), and the samples containing 1 μg of RNA were transcribed to cDNA using the random oligodeoxynucleotide primers and the “MMLV RT kit” (Evrogen, Russia). The amplification procedure was carried out in the mixture containing 10 ng of reverse transcribed product, 0.4 μM of the forward and reverse primers, and the “qPCRmix-HS SYBR + LowROX kit” (Evrogen, Russia). The amplified signals were detected using the “Applied Biosystems® 7500 Real-Time PCR System” (Life Technologies, Carlsbad, CA, USA, Thermo Fisher Scientific Inc., USA). The primers that were used to assess the expression of genes encoding the phosphatase PTP1B, TC-PTP, and SHP1 and the insulin and leptin receptors are presented in Table 4. The obtained data were calculated with the delta–delta Ct method and expressed as a fold expression, relative to the corresponding control. The expression of the gene encoding 18S RNA was used as an endogenous control.
# [4] = tested on: PTP1B and TC-PTP in the hypothalamic arcuate nucleus; set-up: method as in PMID 30525586; settings: administered to mice; cited from earlier work
# [5] = blood, after five-day i.p. treatment, 7 mg/kg (1, 2), 8 mg/kg (3), 10 mg/kg (4), M ± SEM, n = 5
# [6] = blood, before treatment (baseline), M ± SEM, n = 5
structure (smiles),measurement,setting,value
"CCOC(=O)c1ccc2[nH]nc(CO)c(=O)c2c1 [PI4, ethyl 3-(hydroxymethyl)-4-oxo-1,4-dihydrocinnoline-6-carboxylate]",activity towards PTP1B,PTP1B,inhibitory activity
same,"effect on components of the insulin and leptin signaling pathways (Akt, STAT3)",rat hypothalamic neurons,stimulating effect
same,body and fat weights,diet-induced obese rats,reduced
same,food intake,diet-induced obese rats,suppressed
O=c1c(CO)n[nH]c2ccc(F)cc12 [Compound 2],"Glucose, After",[1]; [5],5.68 ± 0.09 ^a mM
same,"Insulin, After",[1]; [5],"1.19 ± 0.13 ^a,c ng/mL"
same,"Leptin, After",[1]; [5],"2.18 ± 0.22 ^a,c ng/mL"
same,"Glucose, Before",[1]; [6],5.82 ± 0.22 ^a mM
same,"Insulin, Before",[1]; [6],1.65 ± 0.17 ^a ng/mL
same,"Leptin, Before",[1]; [6],3.27 ± 0.38 ^a ng/mL
same,"IR (insulin resistance index), After","[1]; product of blood glucose and insulin concentrations, after five-day i.p. treatment, 7 mg/kg (1, 2), 8 mg/kg (3), 10 mg/kg (4)",6.79 ± 0.76 ^a arb.Units
same,"IR (insulin resistance index), Before","[1]; product of blood glucose and insulin concentrations, before treatment (baseline)",9.68 ± 1.27 ^a arb.Units
same,IC50,[2],42.8 ± 9.93 µM
same,IC50,"[3]; DiFMUP 25 µM, 80 ng/mL PTP1B, compounds 0.1–80 μM, M ± SEM (n = 24), read-out: IC50 for the inhibitory effect on PTP1B activity",6.01 ± 0.59 µM
same,selectivity for PTP1B compared to that for TC-PTP,[3]; from IC50 values of Table 1,5–7 fold
same,expression of the Shp1 gene in the liver,Shp1 gene,increased
CC1=C(O)C(=O)C=C2C1=CC=C1[C@@]2(C)CC[C@@]2(C)[C@@H]3C[C@](C)(C(=O)O)CC[C@]3(C)CC[C@]12C [Celastrol],"activity of both phosphatases (PTP1B, TC-PTP) in the hypothalamic arcuate nucleus",[4],reduced
same,food intake and body weights,[4],significantly reducing
